{"source": "ChEMBL document CHEMBL1146127", "about": "“Aminobenzisoxazoles with biaryl P4 moieties as potent, selective, and orally bioavailable factor Xa inhibitors” (Bioorg Med Chem Lett, 2006)", "key": {"in vivo [1]": {"assay": "in vivo", "conditions": "dog, iv, 0.4 mg/kg"}, "in vivo [2]": {"assay": "in vivo", "conditions": "dog, iv, 0.4 mg/kg", "remark": "listed apart in the source"}, "in vivo [3]": {"assay": "in vivo", "conditions": "dog"}, "in vivo [4]": {"assay": "in vivo", "conditions": "dog, po, 0.2 mg/kg"}}}
{"compound": "Nc1noc2ccc(-n3nc(C(F)(F)F)cc3C(=O)Nc3ccc(-c4ccccc4CN4CCCC4)cc3F)cc12", "values": [{"measurement": "clearance", "setting": "in vivo [1]", "value": 28.3, "unit": "mL/min/kg"}, {"measurement": "Vd", "setting": "in vivo [2]", "value": 23, "unit": "L/kg"}, {"measurement": "half-life", "setting": "in vivo [3]", "value": 10, "unit": "h"}, {"measurement": "bioavailability", "setting": "in vivo [4]", "value": 64, "unit": "%"}]}
